Measurements: patent US20130303500A1, “COMPOUNDS AND METHODS FOR TREATING NEOPLASIA” (Medexis S.A., priority 2010, published 2013)
pIC50: −log10 of the molar value.

Key:
CAKI (Renal) cells = assay: MTT cell proliferation/viability assay, CAKI; type: cell-based; details: 72 h
Procedure: (§1) Cell proliferation/viability was assessed by the MTT [3-(4,5-dimethylthiazol-2-yl)-2,5-diphenyltetrazolium bromide] assay, which is commercially available (Sigma, St. Louis, Mo.). Cells were cultured in 96-well plates for twenty-four hours (7-10.000 cells/well) and incubated with various concentrations of the different compounds—as indicated in the Figures—in serum-containing medium (or left untreated) for seventy-two hours. At the end of incubation, the medium was aspirated and MTT dissolved in RPMI 1640 w/o phenol red was added to each well to a final concentration of 0.25 mg/ml. After four hours incubation in the dark (37° C., 5% CO2) the supernatant was discarded. The converted dye (blue formazan crystals) was solubilized by adding 200 μl dimethylsulfoxide to each well. Absorbance was measured at 550 nm with reference at 655 nm using a spectrophotometer with the respective filters. All assays were performed in triplicate.
(§2) The effect of the different compounds on the proliferation and viability of two cancer cell lines (DU145/prostate and CAKI/renal) was tested through quantitative (4,5-dimethylthiazol-2-yl)-2,5-diphenyltetrazolium bromide (MTT) assays.

[1] = test system: 7 different cell lines (lung, ovarian, prostate, CNS, breast, colon); assay: SRB assays across 7 cell lines; type: cell-based, human; details: for viability and/or cell proliferation of cell lines: cell lines representative of lung, breast, CNS, prostate, ovarian, colon and renal neoplasias
Procedure: (§3) Sulforhodamine B (SRB) assays were performed according to standard National Cancer Institute Guidelines. Briefly, human tumor cells from different cancer panels were seeded into 96 well plates in […] (plating densities ranging from 5-40,000 cells/well depending on the doubling time of individual cell lines) in serum-containing media for twenty-four hours prior to the addition of the compounds to be assayed. After 24 hours, one plate of each cell line was fixed in situ with trichloroacetic acid (TCA). The fixed slides were used to determine the cell population for each cell line at the time of drug addition (Tz). Each compound to be tested was solubilized in dimethyl sulfoxide (DMSO) and the desired concentration was then added to the medium and diluted serially 1:10 to provide a total of five or ten drug concentrations plus control (in a final volume of 200 μL). The starting dose before any dilution was 100 uM for all compounds.
(§4) Following drug addition, each culture was incubated for forty-eight hours. The assay was terminated with the addition of cold TCA. The supernatant was discarded, and the plates were washed with tap water and air dried. SRB solution was then added to each well. After staining, the bound stain was solubilized and the absorbance was read on an automated plate reader at a wavelength of 515 nm.
(§5) Using the absorbance measurements [time zero, (Tz), control growth, (C), and test growth in the presence of drug at the ten concentration levels (Ti)], the percentage growth was calculated at each of the drug concentrations levels. Percentage growth inhibition was calculated as:
(§6) [(Ti−Tz)/(C−Tz)]×100 for concentrations for which Ti>/=Tz
(§7) [(Ti−Tz)/Tz]×100 for concentrations for which Ti<Tz.
(§8) Three dose response parameters were calculated for each experimental agent. Growth inhibition of 50% (GI50) was calculated from [(Ti−Tz)/(C−Tz)]×100=50, which was the drug concentration resulting in a 50% reduction in the net protein increase (as measured by SRB staining) in control cells during the drug. The drug concentration resulting in total growth inhibition (TGI) was calculated from Ti=Tz. The LC50 (concentration of drug resulting in a 50% reduction in the measured protein at the end of the drug treatment as compared to that at the beginning) indicating a net loss of cells following treatment was calculated from [(Ti−Tz)/Tz]×100=−50.
(§9) Values were calculated for each of these three parameters when the level of activity was reached; however, if the effect was not reached or was exceeded, the value for that parameter was expressed as greater or less than the maximum or minimum concentration tested.
SRB provides a colorimetric measure of a compound's anti-cancer activity. SRB assays were performed with compounds of the invention in 7 different cell lines, which represent six different tumor panels (lung, ovarian, prostate, CNS, breast, colon).

DU145 (Prostate) cells = assay: MTT cell proliferation/viability assay, DU145; type: cell-based; details: Homo sapiens, DU-145, 72 h
Procedure: as §1, §2

SF268 (CNS) cells = assay: Sulforhodamine B (SRB) assay, SF268; type: cell-based; details: Homo sapiens; for CC50: SF-268, 48 h, read-out: LC50; for GI50 / IC (TGI): SF-268, SF268 CNS, SRB, 48 h
Procedure: as §3, §4, §5, §6, §7, §8, §9

PC3 (Prostate) cells = assay: Sulforhodamine B (SRB) assay, PC3; type: cell-based; details: Homo sapiens, Prostate cell, 48 h; for CC50: read-out: LC50; for GI50 / IC (TGI): PC3 Prostate, SRB
Procedure: as §3, §4, §5, §6, §7, §8, §9

A549 (Lung) cells = assay: Sulforhodamine B (SRB) assay, A549; type: cell-based; details: Homo sapiens; for CC50: A549, 48 h, read-out: LC50; for GI50 / IC (TGI): A549 Lung, SRB, 48 h
Procedure: as §3, §4, §5, §6, §7, §8, §9

[2] = target: Na+/K+-ATPase (Adenosine 5′-Triphosphatase isolated from porcine cerebral cortex); assay: Na+/K+-ATPase inhibitory activity, colorimetric Adenosine 5′-Triphosphatase Enzymatic Assay (Sigma); type: biochemical; details: enzyme from porcine cerebral cortex, 0.5 units/ml
Procedure: The compound inhibitory effect on ATPase activity was assessed in vitro using the colorimetric Adenosine 5′-Triphosphatase Enzymatic Assay of Sigma (St. Louis, Mo.) according to the manufacturer's instructions. This assay utilizes Adenosine 5′-Triphosphatase isolated from porcine cerebral cortex. Each reaction was performed in a final volume of […] using 0.5 units/ml enzyme in the presence of the different inhibitors. […] IC50 values were determined using the Origin® program software (OriginLab, Northampton, Mass.).

SMILES | pIC50 (CAKI (Renal) cells) | GI50 ([1]; Homo sapiens, SRB, average over cell lines) | viability and/or cell proliferation of cell lines [1] | pIC50 (DU145 (Prostate) cells) | CC50 (SF268 (CNS) cells) | GI50 (SF268 (CNS) cells) | IC (TGI) (SF268 (CNS) cells) | CC50 (PC3 (Prostate) cells) | GI50 (PC3 (Prostate) cells) | IC (TGI) (PC3 (Prostate) cells) | CC50 (A549 (Lung) cells) | GI50 (A549 (Lung) cells) | IC (TGI) (A549 (Lung) cells) | pIC50 [2] | GI50 action in most cell lines ([1]; SRB, most cell lines)
C[C@]12CCC(=NOC3CCNC3)CC1C(=O)CC1C2CC[C@]2(C)C(=O)C(F)CC12 (stereo partly drawn) [Compound 4, (10R,13S,16R)-16a-fluoro-10,13-dimethyl-3-((S)-pyrrolidin-3-yloxyimino)-tetradecahydro-14H-cyclopenta[a]phenanthrene-6,17-dione] | 5.30 | < 1 µM | reduced the viability and/or cell proliferation | 5.57 | 6.98 µM | 0.277 µM | 0.782 µM | 8.04 µM | 0.731 µM | 3.24 µM | 1.01 µM | 0.43 µM | 0.723 µM | 6.71 | –
CC(=O)OC[C@]12CCC(=NO[C@@H]3CCNC3)C[C@@H]1CCC1C2CC[C@]2(C)C(=O)CCC12 (stereo partly drawn) [Compound 48, ((5S,10R,13S)-13-methyl-17-oxo-3-((R)-pyrrolidin-3-yloxyimino)-hexadecahydro-1H-cyclopenta[a]phenanthren-10-yl)methyl acetate] | 4.38 | – | reduced the viability and/or cell proliferation | 4.94 | 101 µM | 11.5 µM | 56400 µM | > 100 µM | 8.77 µM | > 100 µM | 102 µM | 6.31 µM | 38300 µM | 5.54 | single-digit micromolar
